The values that follow come from patent publication US20240207302A1, “ANTIVIRAL COMPOUNDS, METHODS FOR THE MANUFACTURING OF COMPOUNDS, ANTIVIRAL PHARMACEUTICAL COMPOSITION, USE OF THE COMPOUNDS AND METHOD FOR THE ORAL TREATMENT OF CORONAVIRUS INFECTION AND RELATED DISEASES THEREOF” (priority 2021, published 2024).

A short description of data set [1]: Cytotoxicity assay (XTT) in Huh-7 cells. Particulars: human. Format: cell-based.
Method: In parallel, cytotoxicity assays were performed. Monolayers of 1.5×10^4 cells in 96-well plates were treated for 3 days with various concentrations (semi-log dilutions from 1,000 to 10 μM) of the antiviral drugs. Then, 5 mg/mL 2,3-bis-(2-methoxy-4-nitro-5-sulfophenyl)-2H-tetrazolium-5-carboxanilide (XTT) in DMEM was added to the cells in the presence of 0.01% of N-methyl dibenzopyrazine methyl sulfate (PMS).
Data set [2] in a line: Cytotoxicity assay (XTT) in Calu-3 cells. Format: cell-based, human. The conditions noted are these: human, Calu-3, single moment treatment. Here is the method: (§1) In parallel, cytotoxicity assays were performed.
A general note: Formazan colour is commonly taken as a measure of viable cells.

Data set [3] in a line: Cytotoxicity assay (XTT) in Vero cells. Type of data set: cell-based. The conditions noted are these: African green monkey. Here is the method: as §1
For data set [4], the system named is SARS-COV-2.
Data set [5] has as its system SARS-COV-2. The data set is described as follows: SARS-COV-2 RNA loads in human primary monocytes. Format: cell-based. Particulars: 24 h. The method, then:
FIG. 5A, 5B and 5C. The compounds impair SARS-COV-2 RNA synthesis and SARS-COV-2-induced release of inflammatory mediators in human primary monocytes.
Human primary monocytes were obtained after 3 h of plastic adherence of peripheral blood mononuclear cells (PBMCs). PBMCs were isolated from healthy donors by density gradient centrifugation (Ficoll-Paque, GE Healthcare). PBMCs (2.0×10^6 cells) were plated onto 48-well plates (NalgeNunc) in RPMI-1640 without serum for 2 to 4 h. Non-adherent cells were removed, and the remaining monocytes were maintained in DMEM with 5% human serum (HS; Millipore) and penicillin/streptomycin. Monocytes were infected at MOI of 0.1. After 1 h inoculation period, cells were washed with phosphate saline buffer (PBS) to remove unbounded viruses and treated with 1 μM of the indicated compounds. After 24 h after infection, cell monolayers werc lysed total viral RNA was extracted, quantitative RT-PCR was performed, to detect the SARS-COV-2 and the housekeeping gene RNAse P.

In data set [6] the test system is SARS-COV-2. The data set is described as follows: Combination with SARS-COV-2 nsp14 (exonuclease) inhibitors in Calu-3 cells, infectious virus titers. Format: cell-based. The conditions noted are these: calu-3; drug 10 μM, raltegravir or dolutegravir 5 μM.
Data set [7] relates to SARS-COV-2. The data set is described as follows: SARS-COV-2 viral RNA synthesis in Vero cells (real time RT-PCR). Type of data set: cell-based. (In general: In qPCR the cycle at which signal appears reflects the starting amount.)
In data set [8] the test system is SARS-COV-2. As to the kind of experiment: SARS-COV-2 viral RNA synthesis in HuH-7 cells (real time RT-PCR). Format: cell-based.
Where [9] appears, read: Severe acute respiratory syndrome coronavirus 2, Calu-3, 72 h, Calu-3 (MOI 0.5 72 h), single moment treatment.

Read-outs that look alike come from different tables or passages of the source.

As a reminder, the CC50 is the concentration at which the toxic effect on the cells reaches its halfway point. As usually defined, the EC50 is the concentration at which the effect is half-maximal. As usually defined, the EC90 is the concentration at which the effect reaches the 90% level. Turning to `C/C(=C\CNc1ncnc2c1ncn2[C@@H]1O[C@H](CO)[C@@H](O)[C@H]1O)CO` [MB-804, zeatin riboside], the CC50 at 3 days came out at 550 µM in data set [1], 580 µM in data set [2] and 636 µM in data set [3]. Further, the SI with SARS-COV-2 [4] (Calu-3, single moment treatment, CC50/EC50) is listed as 500; in the data set on SARS-COV-2 [7] (Vero, CC50/EC50), 454; in the data set with SARS-COV-2 [8] (Huh-7, CC50/EC50), 78. Besides, the 50% effective concentration (EC50) with SARS-COV-2 [4] (setting [9]) came to 1.2 µM; with SARS-COV-2 [7] (Severe acute respiratory syndrome coronavirus 2, Vero (MOI 0.01 24 h), read-out: EC50), 1.4 µM; in the data set on SARS-COV-2 [8] (Severe acute respiratory syndrome coronavirus 2, Huh-7 (MOI 0.1 48 h), read-out: EC50), 7.2 µM. The 90% effect concentration (EC90) in the data set with SARS-COV-2 [4] (setting [9]) was 9.1 µM. The “viral RNA levels/cell” value with SARS-COV-2 [5] was “reduced”. Moreover, the “effect of co-treatment with raltegravir or dolutegravir (iEXO) on inhibition of SARS-COV-2” value in the data set with SARS-COV-2 [6] was “synergistic”.
